According to patent US20110172147A1, “NEUROPEPTIDE-2 RECEPTOR (Y-2R) AGONISTS” (priority 2009, published 2011):
Like-named read-outs stand apart in the source and are kept apart here.

Experiments:
Y1R = biological target: T1, Y1R (Homo sapiens, UniProt P25929); assay: CaFlux Assay (FLIPR), Y1R; assay type: cell-based
T1 sequence (P25929 1-384): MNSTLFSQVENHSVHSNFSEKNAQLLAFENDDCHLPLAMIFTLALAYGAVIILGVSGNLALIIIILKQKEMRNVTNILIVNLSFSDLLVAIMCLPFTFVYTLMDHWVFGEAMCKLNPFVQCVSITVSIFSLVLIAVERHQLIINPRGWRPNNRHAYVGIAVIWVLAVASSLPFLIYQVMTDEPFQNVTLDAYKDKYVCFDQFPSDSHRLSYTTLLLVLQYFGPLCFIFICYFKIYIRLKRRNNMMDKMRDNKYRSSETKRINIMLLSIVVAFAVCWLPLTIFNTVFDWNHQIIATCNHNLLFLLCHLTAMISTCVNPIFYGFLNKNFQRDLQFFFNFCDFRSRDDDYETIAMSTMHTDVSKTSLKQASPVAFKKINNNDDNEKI

hNPY2R = biological target: T2, hNPY2R (Homo sapiens, UniProt P49146); assay: cAMP Agonist Assay, HEK293/hNPY2R; assay type: cell-based; parameters: expressed in transfected cells; host or cells: HEK293/hNPY2R (G418 selection)
T2 sequence (P49146 1-381): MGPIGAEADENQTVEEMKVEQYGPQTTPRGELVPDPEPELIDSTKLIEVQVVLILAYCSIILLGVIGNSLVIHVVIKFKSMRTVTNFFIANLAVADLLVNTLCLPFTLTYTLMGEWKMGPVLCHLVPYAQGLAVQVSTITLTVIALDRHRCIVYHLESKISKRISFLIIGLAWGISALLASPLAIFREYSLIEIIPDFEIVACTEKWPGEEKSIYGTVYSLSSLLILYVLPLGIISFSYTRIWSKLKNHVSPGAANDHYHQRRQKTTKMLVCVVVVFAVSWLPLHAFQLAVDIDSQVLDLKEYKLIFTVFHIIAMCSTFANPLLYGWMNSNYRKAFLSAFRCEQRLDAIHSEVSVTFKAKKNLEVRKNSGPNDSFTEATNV
How it was run: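 HEK293/hNPY2R cells (10,000/well, overnight) stimulated 30 min at room temperature with compound plus 5 μM forskolin and 0.5 mM IBMX (1.1% DMSO final). Lysate cAMP measured by competitive chemiluminescent ELISA (AP conjugate, CSPD substrate); quadruplicates.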

[1] = FLIPR; read-out: Y1R EC50 (nM) FLIPR
[2] = HEK293/hNPY2R cells, Forskolin 5 μM; read-out: Y2R EC50 (nM) cAMP

Row | Compound | EC50 (Y1R; [1]) [nM] | EC50 (hNPY2R; [2]) [nM] | EC50 (Y1R; read-out: Y1R EC50 (nM) FLIPR; FLIPR) [nM] | EC50 (hNPY2R; read-out: Y2R EC50 (nM) cAMP; HEK293/hNPY2R cells, Forskolin 5 μM) [nM]
1 | CCCCCCCCCCCCCCCCCCCC(=O)N[C@@H](CCS(=O)(=O)O)C(=O)N[C@@H](CCS(=O)(=O)O)C(=O)NCCCC[C@H](NC(=O)[C@@H](NC(=O)CCOCCOCCOCCOCCOCCOCCOCCOCCOCCOCCOCCOCCOCCOCCOCCOCCOCCOCCOCCOCCOCCOCCOCCOC)[C@@H](C)CC)C(=O)N1CCN(c2ccc3ncn(CC(=O)N[C@@H](CCCNC(N)=O)C(=O)NC(Cc4c[nH]cn4)C(=O)N[C@@H](Cc4ccc(O)cc4)C(=O)NC(CC(C)C)C(=O)N[C@@H](CC(N)=O)C(=O)NC(Cc4c[nH]c5ccccc45)C(=O)N[C@H](C(=O)N[C@H](C(=O)N[C@@H](CCCNC(=N)N)C(=O)NC(CCC(N)=O)C(=O)N(C)[C@@H](CCCNC(=N)N)C(=O)NC(Cc4ccc(O)cc4)C(N)=O)[C@@H](C)O)C(C)C)c(=O)c3c2)CC1 (stereo partly drawn) [Example 28] | > 6000 | 1.8 |  | 
2 | CCCCCCCCCCCCCCCC(=O)N[C@@H](CCS(=O)(=O)O)C(=O)N[C@@H](CCS(=O)(=O)O)C(=O)NCCCC[C@H](NC(=O)[C@@H](NC(=O)CCOCCOCCOCCOCCOCCOCCOCCOCCOCCOCCOCCOCCOCCOCCOCCOCCOCCOCCOCCOCCOCCOCCOCCOC)[C@@H](C)CC)C(=O)N1CCN(c2ccc3ncn(CC(=O)N[C@@H](CCCNC(=N)N)C(=O)NC(Cc4c[nH]cn4)C(=O)N[C@@H](Cc4ccc(O)cc4)C(=O)NC(CC(C)C)C(=O)N[C@@H](CC(N)=O)C(=O)NC(Cc4c[nH]c5ccccc45)C(=O)N[C@H](C(=O)N[C@H](C(=O)N[C@@H](CCCNC(=N)N)C(=O)NC(CCC(N)=O)C(=O)N(C)[C@@H](CCCNC(=N)N)C(=O)NC(Cc4ccc(O)cc4)C(N)=O)[C@@H](C)O)C(C)C)c(=O)c3c2)CC1 (stereo partly drawn) [Example 29] | > 6000 | 0.14 |  | 
3 | CCCCCCCCCCCCCCCCCCCC(=O)NCCCCCC(=O)N[C@H](C(=O)N[C@@H](CCCCNC(=O)CCOCCOCCOCCOCCOCCOCCOCCOCCOCCOCCOCCOCCOCCOCCOCCOCCOCCOCCOCCOCCOCCOCCOCCOC)C(=O)N1CCN(c2ccc3ncn(CC(=O)N[C@@H](CCCNC(=N)N)C(=O)N[C@@H](Cc4c[nH]cn4)C(=O)N[C@@H](Cc4ccc(O)cc4)C(=O)N[C@@H](CC(C)C)C(=O)N[C@@H](CC(N)=O)C(=O)N[C@@H](Cc4c[nH]c5ccccc45)C(=O)N[C@H](C(=O)N[C@H](C(=O)N[C@@H](CCCNC(=N)N)C(=O)N[C@@H](CCC(N)=O)C(=O)N(C)[C@@H](CCCNC(=N)N)C(=O)N[C@@H](Cc4ccc(O)cc4)C(N)=O)[C@@H](C)O)C(C)C)c(=O)c3c2)CC1)[C@@H](C)CC [Example 35] | > 6000 | 0.17 |  | 
4 | CC[C@H](C)[C@H](NC(=O)[C@H](CCC(=O)O)NC(=O)[C@H](CCC(=O)O)NC(=O)CCCCCCCCCCCCCCC(=O)O)C(=O)N[C@@H](CCCCNC(=O)CCOCCOCCOCCOCCOCCOCCOCCOCCOCCOCCOCCOCCOCCOCCOCCOC)C(=O)N1CCN(c2ccc3ncn(CC(=O)N[C@@H](CCCNC(=N)N)C(=O)N[C@@H](Cc4c[nH]cn4)C(=O)N[C@@H](Cc4ccc(O)cc4)C(=O)N[C@@H](CC(C)C)C(=O)N[C@@H](CC(N)=O)C(=O)N[C@@H](Cc4c[nH]c5ccccc45)C(=O)N[C@H](C(=O)N[C@H](C(=O)N[C@@H](CCCNC(=N)N)C(=O)N[C@@H](CCC(N)=O)C(=O)N(C)[C@@H](CCCNC(=N)N)C(=O)N[C@@H](Cc4ccc(O)cc4)C(N)=O)[C@@H](C)O)C(C)C)c(=O)c3c2)CC1 [Example 54] |  |  | > 6000 | 36

More lines, main results first:

Row | EC50 (Y1R; [1]) [nM] | EC50 (hNPY2R; [2]) [nM] | Compound | EC50 (Y1R; read-out: Y1R EC50 (nM) FLIPR; FLIPR) [nM] | EC50 (hNPY2R; read-out: Y2R EC50 (nM) cAMP; HEK293/hNPY2R cells, Forskolin 5 μM) [nM]
5 | > 6000 | 1.29 | CC[C@H](C)[C@H](NC(C)=O)C(=O)N[C@@H](CCCCNC(=O)CCOCCOCCOCCOCCOCCOCCOCCOCCOCCOCCOCCOCCOCCOCCOCCOCCOCCOCCOCCOCCOCCOCCOCCOC)C(=O)N1CCN(c2ccc3ncn(CC(=O)N[C@@H](CCCNC(=N)N)C(=O)N[C@@H](Cc4c[nH]cn4)C(=O)N[C@@H](Cc4ccc(O)cc4)C(=O)N[C@@H](CC(C)C)C(=O)N[C@@H](CC(N)=O)C(=O)N[C@@H](Cc4c[nH]c5ccccc45)C(=O)N[C@H](C(=O)N[C@H](C(=O)N[C@@H](CCCNC(=N)N)C(=O)N[C@@H](CCC(N)=O)C(=O)N(C)[C@@H](CCCNC(=N)N)C(=O)N[C@@H](Cc4ccc(O)cc4)C(N)=O)[C@@H](C)O)C(C)C)c(=O)c3c2)CC1 [Example 21] |  | 
6 | > 6000 | 2.3 | CCCCCCCCCCCCCCCCCCCC(=O)N[C@@H](CCS(=O)(=O)O)C(=O)N[C@@H](CCS(=O)(=O)O)C(=O)NCCCC[C@H](NC(=O)[C@@H](NC(=O)CCOCCOCCOCCOCCOCCOCCOCCOCCOCCOCCOCCOCCOCCOCCOCCOCCOCCOCCOCCOCCOCCOCCOCCOC)[C@@H](C)CC)C(=O)N1CCN(c2ccc3ncn(CC(=O)N[C@@H](CCCNC(=N)N)C(=O)NC(Cc4c[nH]cn4)C(=O)N[C@@H](Cc4ccc(O)cc4)C(=O)NC(CC(C)C)C(=O)N[C@@H](CC(N)=O)C(=O)NC(Cc4c[nH]c5ccccc45)C(=O)N[C@H](C(=O)N[C@H](C(=O)N[C@@H](CCCNC(=N)N)C(=O)NC(CCC(N)=O)C(=O)N(C)[C@@H](CCCNC(=N)N)C(=O)NC(Cc4ccc(O)cc4)C(N)=O)[C@@H](C)O)C(C)C)c(=O)c3c2)CC1 (stereo partly drawn) [Example 27] |  | 
